Data as given in patent US10059689B2, “Substituted heteroaryl compounds and methods of use” (Sunshine Lake Pharma Co., Ltd., priority 2014, dated 2018).

Assay: Compound stability in human liver microsomes
Type: in vitro ADME
Settings: for half-life: pH 7.4, 37° C., NADPH, read-out: Human T1/2; for CLint scaled: pH 7.4, in vivo CLint extrapolated
Description: Human or rat liver microsomes incubations were conducted in duplicate in polypropylene tubes. The typical incubation mixtures consisted of human or rat liver microsomes (0.5 mg protein/mL), compounds of interest (5 μM) and NADPH (1.0 mM) in a total volume of 200 μL potassium phosphate buffer (PBS, 100 mM, pH 7.4). Compounds were dissolved in DMSO and diluted with PBS such that the final concentration of DMSO was 0.05%. The enzymatic reactions were commenced with the addition of protein after a 3-min preincubation and incubated in a water bath open to the air at 37° C. Reactions were terminated at various time points (0, 5, 10, 15, 30, 60 min) by adding equal volume of ice-cold acetonitrile. The samples were stored at −80° C. until LC/MS/MS assays.
The concentrations of compounds in the incubation mixtures of human or rat liver microsomes were determined by a LC/MS/MS method. The ranges of the linearity in the concentration range were determined for each tested compounds.
A parallel incubation was performed using denatured microsomes as the negative control, and reactions were terminated at various time points (0, 15, 60 min) after incubation at 37° C.
Verapamil (1 μM) was selected as the positive control, and reactions were terminated at various time points (0, 5, 10, 15, 30, 60 min) after incubation at 37° C. Both positive and negative control samples were included in each assay to ensure the integrity of the microsomal incubation system.
In addition, the stability date of compound in human and rat liver microsomes was also obtained through the following method. Human or rat liver microsomes incubations were conducted in duplicate in polypropylene tubes. The typical incubation mixtures consisted of human or rat liver microsomes (0.5 mg protein/mL), compounds of interest (1.5 μM) and EDTA (1.0 mM) in a total volume of 30 μL potassium phosphate buffer (PBS, 100 mM, pH 7.4). Compounds were dissolved in DMSO and diluted with PBS such that the final concentration of DMSO was 0.2%. The enzymatic reactions were commenced with the addition of 15 μL NADPH (final concentration: 2 mM) after a 10-min preincubation and incubated in a water bath open to the air at 37° C. Reactions were terminated at various time points (0, 15, 30, 60 min) by adding 135 μL acetonitrile (contain IS). The samples were centrifuged at 4000 rpm for 10 min to remove protein, the supernatant was stored at −80° C. until LC/MS/MS assays. Ketanserin (1 μM) was selected as the positive control, and reactions were terminated at various time points (0, 15, 30, 60 min) after incubation at 37° C. Both positive and negative control samples were included in each assay to ensure the integrity of the microsomal incubation system.
The concentrations of compounds in human or rat liver microsome incubations were plotted as a percentage of the relevant zero time point control for each reaction. The in vivo CLint were extrapolated (ref.: Naritomi, Y.; Terashita, S.; Kimura, S.; Suzuki, A.; Kagayama, A.; and Sugiyama, Y.; Prediction of human hepatic clearance from in vivo animal experiments and in vitro metabolic studies with liver microsomes from animals and humans. Drug Metab. Dispos., 2001, 29: 1316-1324).

half-life [min]	CLint scaled [mL/min/kg]	SMILES
5.51	315	Cc1nn(C)cc1Nc1ncc(Cl)c(NC2CCN(c3ccc(C#N)cn3)CC2)n1 [Ex. 10, 6-(4-((5-chloro-2-((1,3-dimethyl-1H-pyrazol-4-yl)amino)pyrimidin-4-yl)amino)piperidin-1-yl)nicotinonitrile]
25.3	68.8	Cc1c2ccc(Nc3ncc(Cl)c(NC4CCN(c5ccc(C#N)nn5)CC4)n3)cc2nn1C [Ex. 12, 6-(4-((5-chloro-2-((2,3-dimethyl-2H-indazol-6-yl)amino)pyrimidin-4-yl)amino)piperidin-1-yl)pyridazine-3-carbonitrile]

Continued, compound first:

SMILES	half-life [min]	CLint scaled [mL/min/kg]
CN(c1nc(Nc2cnn(C)c2)ncc1Cl)C1CCN(c2ccc(C#N)cn2)CC1 [Ex. 5, 6-(4-((5-chloro-2-((1-methyl-1H-pyrazol-4-yl)amino)pyrimidin-4-yl) (methyl)amino)piperidin-1-yl)nicotinonitrile]	22.9	75.7
Cc1cc(Nc2ncc(Cl)c(NC3CCN(c4ccc(C#N)nn4)CC3)n2)nn1C [Ex. 13, 6-(4-((5-chloro-2-((1,5-dimethyl-1H-pyrazol-3-yl)amino)pyrimidin-4-yl)amino)piperidin-1-yl)pyridazine-3-carbonitrile]	68.2	25.5
Cc1c2ccc(Nc3ncc(Cl)c(NC4CCN(c5ccc(C#N)cn5)CC4)n3)cc2nn1C [Ex. 4]	13.2	131
Cc1nn(C)cc1Nc1ncc(Cl)c(NC2CCN(c3ccc(C#N)nn3)CC2)n1 [Ex. 11, 6-(4-((5-chloro-2-((1,3-dimethyl-1H-pyrazol-4-yl)amino)pyrimidin-4-yl)amino)piperidin-1-yl)pyridazine-3-carbonitrile]	13.1	133
Cn1cc(Nc2ncc(Cl)c(NC3CCN(c4ccc(C#N)cn4)CC3)n2)cn1 [Ex. 1, 6-(4-((5-chloro-2-((1-methyl-1H-pyrazol-4-yl)amino)pyrimidin-4-yl)amino)piperidin-1-yl)nicotinonitrile]	40.8	42.6
